This is an account of results in publication PMC8624457, “Synthesis and Characterization of the Ethylene-Carbonate-Linked L-Valine Derivatives of 4,4-Dimethylcurcumin with Potential Anticancer Activities” (Molecules, 2021).

This data set relates to NCI-H460 cells. Briefly: Intracellular uptake and bioconversion by LC-MS of cell extracts. Type of data set: in vitro ADME, Human. The settings on record: 10 μM. The protocol:
To test our hypothesis, intracellular uptake of DMCU, 1-TFA, and 2-TFA were evaluated in NCI-H460 cells which cells were more sensitive to 1-TFA and 2-TFA than DMCU. The intracellular drug uptake was generally evaluated using a fluorescence microscope or flow cytometry. However, the extremely similar chromophores among DMCU, 1-TFA, and 2-TFA caused failure in detection of individual signals by these two methodologies and therefore drew us to develop a versatile LC-MS based analysis for the cellular uptake evaluations. To estimate the cellular uptake, NCI-H460 cells were treated with each compound for the indicated time periods and the cell extracts were then subjected to LC-MS analysis to determine the intracellular levels of DMCU, 1-TFA, and […] (Figure 4). In the treatment groups, the intracellular levels of each compound were detected by LC-MS where the amount of the compound was quantified by comparing the LC-MS signals of cellular extracts to the corresponding drug calibration curves. […] The maximal uptake levels of 1-TFA and DMCU were detected by 60 ng and 7 ng, respectively, at 60 min after treatment (Figure 4A,B). In 2-TFA treated group, the maximal cellular uptakes occurred during the time interval from 30 to 60 min after drug treatment and acquired 100 ng of DMCU, 12 ng of 1-TFA and 1.2 ng of 2-TFA (Figure 4A–C). […] The cellular uptake efficiency of H460 cells was then evaluated in terms of the total quantity of DMCU, 1-TFA, and 2-TFA. […]

Counter-ions that a name gives are not always drawn.

Take `COc1cc(/C=C/C(=O)C(C)(C)C(=O)/C=C/c2ccc(OC(=O)OCCNC(=O)[C@@H](N)C(C)C)c(OC)c2)ccc1O` [Compound 1-TFA]: the “maximal uptake level: intracellular 1-TFA” value (1-TFA-treated NCI-H460 cells, at 60 min after treatment) was 60 ng.
In the case of `COc1cc(/C=C/C(=O)C(C)(C)C(=O)/C=C/c2ccc(OC(=O)OCCNC(=O)[C@@H](N)C(C)C)c(OC)c2)ccc1OC(=O)OCCNC(=O)[C@@H](N)C(C)C` [Compound 2-TFA], the “maximal cellular uptake: intracellular 2-TFA” value (2-TFA-treated NCI-H460 cells, 30 to 60 min after drug treatment) was 1.2 ng.
Consider `COc1cc(/C=C/C(=O)C(C)(C)C(=O)/C=C/c2ccc(O)c(OC)c2)ccc1O` [DMCU, 4,4-Dimethylcurcumin], for which the “maximal uptake: intracellular DMCU” value (DMCU-treated NCI-H460 cells, at 1–2 h post-drug treatment, extract of approx. 1 × 10^6 cells) is “about 100 ng”.
